Results: paper PMC11809919, “Quinoxaline-based anti-schistosomal compounds have potent anti-plasmodial activity” (PLOS Pathogens, 2025)
“And” between values parts separate entries of the source, which are not always exact repeats. Equal values may be shown once. Read-outs that look alike come from different tables or passages of the source.

Tests used:
[1] = tested on: P. falciparum 3D7; test: Compound dose-response assay (72 h, SYBR Green I), 3D7; assay type: cell-based, Plasmodium falciparum; conditions: for IC50: 72 h, asexual blood stage; for Selectivity index HepG2/3D7: HepG2 72 h CC50 / Pf 3D7 IC50
Procedure: (§1) P. falciparum parasites were cultured at 3% hematocrit in RPMI 1640 (Gibco) medium consisting of 0.5% Albumax II (Gibco), 25 mM HEPES (Sigma), 0.21% sodium bicarbonate, 1x GlutaMAX (Gibco), 25 μg/mL gentamicin (Gibco). A tri-gas mixture (1% O2, 3% CO2, and 96% N2) was used for parasite cultures. Parasites were synchronized using a sorbitol and Percoll density gradient method. The following parasite strains were used: 3D7, Dd2 (MR4, MRA-156, T. Wellems), GB4 (MR4, MRA-925, T. Wellems), UG659 (P. Rosenthal), Tanzania (MR4, MRA-1169, Michal Fried), Cam/PH0212C (R. Fairhurst), and Cam3.II/ PH0306-C (R. Fairhurst). Transfection was performed using ring-stage parasites (5–8% parasitemia) using a Gene Pulser Xcell (Biorad) electroporator.
(§2) Compound dose-response assays were performed in flat-bottom 96-well plates. Tightly synchronized ring-stage parasites were diluted to 1% parasitemia at 2% hematocrit, and incubated with a two-fold serial dilution of compounds in complete medium. Untreated parasites or uninfected RBCs were included in the assay plate as controls. Parasite growth was assessed after 72 h by lysing parasites using 2× lysis buffer consisting of 10 mM Tris-HCl, 5 mM EDTA, 0.1% w/v saponin, and 1% v/v Triton X-100, supplemented with 2× SYBR Green I (Molecular Probes). The fluorescence was measured using a FluorStar Omega v5.11 plate reader. IC50 analysis was performed using GraphPad Prism v9, and statistical significance was determined by a two-sided Mann-Whitney U test. All assays were performed in technical duplicate with at least three biological replicates, as noted in the figure legends.

[2] = tested on: P. falciparum Dd2; test: Compound dose-response assay (72 h, SYBR Green I), Dd2; assay type: cell-based, Plasmodium falciparum; conditions: for IC50: 72 h, asexual blood stage; for Selectivity index HepG2/Dd2: HepG2 72 h CC50 / Pf Dd2 IC50
Procedure: as §1, §2

[3] = tested on: P. falciparum strains Cam/PH0212C, Cam3.II/PH0306-C, UG659, GB4, Tanzania; test: Dose-response assay against panel of geographically distinct strains; assay type: cell-based, Plasmodium falciparum; conditions: Cambodian isolates
Procedure: as §1, §2

[4] = tested on: Dd2-Polδ clones C22-1.1 and C22-2.1; test: Dose-response assay on compound 22-selected clones (cross-resistance); assay type: cell-based, Plasmodium falciparum
Procedure: Resistance selections were performed using a mutator parasite line Dd2-Polδ with an elevated mutation rate. Three independent flasks with either 1×10^8 or 1×10^9 parasites each were treated with 5×IC50, and parasite death was monitored by microscopy (Giemsa staining). […] After eight days, compounds were removed from the media and the media was changed on alternate days. […] For recrudescent cultures, compound susceptibility was determined by dose-response assays. Parasite clones were obtained by limiting dilution and harvested for genomic DNA extraction, followed by whole-genome sequencing.
as §2

[5] = tested on: P. falciparum PfQRP1 mutants (G1612V, D1863Y, D1829*, D1829A); test: Dose-response assay on CRISPR-edited PfQRP1 mutant lines; assay type: cell-based, Plasmodium falciparum; conditions: for Susceptibility in CRISPR-edited G1612V and D1863Y PfQRP1 lines: versus silent-mutation and wildtype controls
Procedure: To generate the PfQRP1 hydrolase mutants (D1829stop and D1829A), the pDC2-Cas9-gRNA-donor plasmid was transfected into the P. falciparum Dd2 line. Donor plasmid (50 µg) containing the sgRNA ([…]) and a pfqrp1 homology region of 672 bp, centred on the D1829 residue, was used for transfection. Transfectants were selected using 5 nM WR99210 (a potent inhibitor of P. falciparum dihydrofolate reductase (DHFR) provided by Jacobus Pharmaceuticals) for 8 days, followed by culturing without drug until parasites were observed. Parasite clones were obtained using limiting dilution cloning. Confirmation of gene editing was performed with allele-specific PCR (forward primer […] and reverse primer […]) and Sanger sequencing using an internal primer ([…]).
as §2

[6] = tested on: P. falciparum ring, trophozoite and schizont stages; test: Stage specificity assay; assay type: cell-based, Plasmodium falciparum; conditions: for Stage-specificity: 10 h pulse at ring, trophozoite or schizont stage
Procedure: Stage-specific drug assays were performed following a protocol modified from Murithi et al.. In this assay, parasites were tightly synchronized to the ring stage with repeated 5% sorbitol treatments. On the assay day, schizonts were purified using a 63% Percoll gradient and allowed to […]. […] Parasites were then plated in 96-well plates and exposed to different drug concentrations at various stages: […] Drug treatment was removed through three rounds of washes. Plates were lysed 62 h after drug washout, and parasite growth was assessed similarly to the standard 72 h assay that used constant drug exposure.

[7] = tested on: P. falciparum Dd2; test: Rate of killing (CFDA-SE labelled RBC reinvasion); assay type: cell-based, Plasmodium falciparum; conditions: Dd2, 10×IC50, 24 h or 48 h
Procedure: The rate of killing was evaluated as previously described in Linares et al.. […] After treatment, the compound was removed, and the culture was diluted (1/3) using fresh RBCs (2% haematocrit) pre-labelled with CFDA-SE (carboxylfluorescein diacetate succinimidyl ester, Life Technologies). Following a 48 h incubation under standard conditions, the ability of treated parasites to infect fresh labelled RBCs was measured using a Cytoflex flow cytometer by quantifying double-positive RBCs after labelling the parasites with MitoTracker Deep Red. Parasite viability was determined as the percentage of infected CFDA-SE-labelled RBCs in drug-treated samples at 24 and 48 h, compared to equivalent untreated controls. Standard compounds dihydroartemisinin, chloroquine, and atovaquone were used as benchmarks for comparing the killing rate of the test compounds.

[8] = tested on: S. mansoni schistosomula; parameters: method as in Padalino et al. [13]; conditions: ref Padalino et al. [13], cited from earlier work
[9] = tested on: HepG2 cells; parameters: method as in Padalino et al. [13]; conditions: ref Padalino et al. [13], cited from earlier work
[10] = tested on: β-hematin formation; test: Detergent-based β-hematin inhibition assay; assay type: biochemical; conditions: cell-free, NP40 detergent, pH 4.8; read-out: βH Inhibition IC50, individual biological replicate
Procedure: From this stock 40 μL of each was delivered to wells in the final column (column 12) of a 96-well plate together with distilled water (120 μL) and NP40 detergent (305.5 mM, 40 μL). […] A serial dilution of each compound (100 μL) from column 12 to column 2 was carried out. Column 1 served as a blank with 0 mM sample. A 25 mM hematin stock solution was prepared by sonicating hemin in DMSO for one minute and then suspending 179 μL of this in a 1 M acetate buffer (20 mL, pH 4.8). […] The plate was covered and incubated at 37°C for 5 h. […] Acetone (60 μL) was then added to assist with hematin dispersion. The UV-vis absorbance of the plate wells was read on a SpectraMax […] plate reader.

[11] = tested on: 3D7 parasites (hemoglobin, 'free' heme, hemozoin); test: Cellular heme fractionation assay; assay type: cell-based, Plasmodium falciparum; conditions: 3D7, 0.5 – 2.5× IC50, 30 h
Text: Cellular heme fractionation to measure the amounts of different heme species was thereafter conducted as previously described. […] Pellets were then resuspended in 1× PBS (pH 7.5) and an aliquot of the trophozoite suspension used to quantify the total number of trophozoites isolated using flow cytometry. Contents of the remaining trophozoite pellet were then released by hypotonic lysis and sonication. […] The UV−visible spectrum of each heme fraction as an Fe(III)heme−pyridine complex was measured using a multi-well plate reader (Spectramax 340PC; Molecular Devices). The total amount of each heme species was quantified using a heme standard curve whereby the mass of each heme-Fe species per trophozoite (fg/cell) was calculated by dividing the total amount of each heme species by the corresponding number of parasites in that fraction as determined by flow cytometry. Statistical comparisons and analyses for trends were made on GraphPad Prism version 10 using Students’ t-test with Welch correction. The total amount of heme obtained from each fraction was quantified using a standard curve prepared from a 100 μg/mL heme standard solution of hematin (porcine) in 0.3 M NaOH. Serial dilutions of this standard were carried out in a 96-well plate with 100 μL 0.3 M NaOH as a blank. […] The visible spectra of heme as Fe(III)heme-pyridine complex were recorded in a multi-well plate reader. The amount of heme Fe per cell was calculated by dividing the total heme Fe in each fraction by the number of cells determined in each fraction.

[12] = tested on: P. berghei liver stage parasites; parameters: method as in PMID 22096101; conditions: cited from earlier work
[13] = tested on: S. mansoni adult worms; parameters: method as in PMID 24416463; conditions: 400 compounds of the Malaria Box; cited from earlier work
[14] = Plasmodium falciparum, 3D7, 72 h
[15] = Plasmodium falciparum, DD2, 72 h
[16] = 72 h, read-out: 72 h -phenotype EC50
[17] = average of phenotype and motility, read-out: Average EC50
[18] = HepG2, 24 h, read-out: 24 h CC50
[19] = HepG2, 72 h, read-out: 72 h CC50

Row | Structure (SMILES) | Selectivity index HepG2/3D7 [1] | IC50 [1, 14] [nM] | Selectivity index HepG2/Dd2 [2] | IC50 [2, 15] [nM] | Potency against panel of geographically distinct strains [3] | Shift in IC50 in compound 22-selected clones versus parental Dd2-Polδ [4] | Effect of D1829 stop / D1829A PfQRP1 mutation on IC50 [5] | Increase in IC50 in D1829A / D1829 stop PfQRP1 mutants [5] | Susceptibility in CRISPR-edited G1612V and D1863Y PfQRP1 lines [5] | Drop in potency for a 10 h pulse compared with continuous exposure for 72 h [6] | Stage-specificity [6] | Rate of parasite killing [7] | EC50 [8, 16] [nM] | EC50 [8, 17] [nM] | EC50 ([8]; read-out: Motility EC50) [nM] | CC50 [9, 18] [nM] | CC50 [9, 19] [nM] | Activity against S. mansoni adult worms [13] | also measured
1 | O=[N+]([O-])c1ccc2nc(Nc3ccc(Cl)c(Cl)c3)c(Nc3ccc(Cl)c(Cl)c3)nc2c1 [Compound 22] | 11.9 | 22 | 8.0 | 32 | potencies similar to those recorded for the lab strain Dd2 | small but consistent shift in IC50 | elevated IC50 | 2–3 fold | reduced susceptibility | 3–4 fold | did not demonstrate a strong stage-specificity | rapidly reduced parasitemia | 470 | 440 | 420 | 7400 | 260 |  | IC50 [1]: 21.9 nM; IC50 [2]: 32.4 nM
2 | O=[N+]([O-])c1ccc2nc(Nc3ccc(C(F)(F)F)cc3)c(Nc3ccc(C(F)(F)F)cc3)nc2c1 [Compound 31] | 8.2 | 9.7 | 5.7 | 14 | potencies similar to those recorded for the lab strain Dd2 | small but consistent shift in IC50 | elevated IC50 | 2–3 fold | reduced susceptibility | 3–4 fold | did not demonstrate a strong stage-specificity | rapidly reduced parasitemia | 340 | 310 | 280 | 8800 | 80 |  | 
3 | O=[N+]([O-])c1ccc2nc(Nc3cc(C(F)(F)F)ccc3F)c(Nc3cc(C(F)(F)F)ccc3F)nc2c1 [Compound 33] | 22.2 | 4.5 | 14.1 | 7.1 | potencies similar to those recorded for the lab strain Dd2 | unexpectedly not | not affected |  |  | 3–4 fold | did not demonstrate a strong stage-specificity | rapidly reduced parasitemia | 150 | 150 | 150 | 27500 | 100 |  | 
4 | Brc1ccc(Nc2nc3ccccc3nc2Nc2ccc(Br)cc2)cc1 [MMV007224, 2-N,3-N-bis(4-bromophenyl)quinoxaline-2,3-diamine] |  |  |  |  |  |  | less potent |  |  |  |  |  |  |  |  |  |  | among the most active hits | IC50 [10]: 146000 nM and 198000 nM; Levels of 'free' heme or hemozoin relative to untreated controls [11]: no significant changes; Undigested hemoglobin levels [11]: modest concentration-dependent increase; Activity against P. berghei liver stage parasites [12]: did not show activity
5 | O=C(Nc1ccc(Cl)c(Cl)c1)Nc1ccc(Cl)c(Cl)c1 [MMV665852] |  |  |  |  |  |  |  |  |  |  |  |  |  |  |  |  |  | most active compounds | 
